Reference: patent US6794400B2, “4-substituted-1-(arylmethylidene)thiosemicarbazide, 4-substituted-1-(arylcarbonyl)thiosemicarbazide and analogs as activators of caspases and inducers of apoptosis and the use thereof” (Cytovia, Inc., priority 2001, dated 2004)

Columns and labels:
[1] = test system: K562; experiment: Cell proliferation assay GI50, K562; assay type: cell-based; details: Homo sapiens; K562 cells, 48 h
Experimental: (§1) All the cell lines were grown according to the conditions recommended by American Type Culture Collection. An aliquot of 90 μL of cells (2.2×10^4 cells/mL) was added to a well of a 96-well microtiter plate containing 10 μL of a 10% DMSO in RPMI-1640 media solution containing 1 nM to 100 μM of 4-(bicyclo[2.2.1]hept-5-en-2-yl)-1-(pyridin-2-ylmethylidene)thiosemicarbazide (0.1 nM to 10 μM final). An aliquot of 90 μL of cells was added to a well of a 96-well microtiter plate containing 10 μL of a 10% DMSO in RPMI-1640 media solution without compound as the control sample for maximal cell proliferation (AMax). The samples were mixed by agitation and then incubated at 37° C. for 48 h in a 5% CO2-95% humidity incubator. After incubation, the samples were removed from the incubator and 20 μL of CellTiter 96 AQUEOUS One Solution Cell Proliferation™ reagent (Promega) was added. […] Using an absorbance plate reader (Model 1420 Wallac Instruments), an initial reading (T=0) was made approximately 1-2 min after addition of the solution, employing absorbance at 490 nm. This determines the possible background absorbance of the test compounds. No absorbance for 4-(bicyclo[2.2.1]hept-5-en-2-yl)-1-(pyridin-2-ylmethylidene)thiosemicarbazide was found at 490 nm. After the 2-4 h incubation, the samples were read for absorbance as above (ATest). […]

[2] = test system: P388/ADR; experiment: Cell proliferation assay GI50, drug resistant P388/ADR; assay type: cell-based; details: Mus musculus; P388/ADR (drug resistant) cells
Experimental: as §1

[3] = test system: MCF-7; experiment: Cell proliferation assay GI50, MCF-7; assay type: cell-based; details: Homo sapiens, MCF7; MCF-7 cells, 48 h
Experimental: as §1

[4] = test system: MDA-MB-231; experiment: Cell proliferation assay GI50, MDA-MB-231; assay type: cell-based; details: Homo sapiens; MDA-MB-231 cells, 48 h
Experimental: as §1

[5] = test system: T-47D; experiment: Caspase cascade activation (N-(Ac-DEVD)-N'-ethoxycarbonyl-R110 fluorogenic substrate) in T-47D cells; assay type: cell-based, human; details: 48 h incubation; for Caspase activity Ratio (net RFU of test compound to control): 0.016 to 10 μM final; for EC50: Homo sapiens, T47D, read-out: Caspase potency EC50
Experimental: (§2) Human breast cancer cell lines T47D and ZR-75-1 were grown according to media component mixtures designated by American Type Culture Collection+10% FCS (Invitrogen Corporation), in a 5% CO2-95% humidity incubator at 37° C. T-47D and ZR-75-1 cells were maintained at a cell density between 50 and 80% confluency at a cell density of 0.1 to 0.6×10^6 cells/mL. Cells were harvested at 600×g and resuspended at 0.65×10^6 cells/mL into appropriate media+10% FCS. An aliquot of 45 μL of cells was added to a well of a 96-well microtiter plate containing 2.5 μL of a 10% DMSO in RPMI-1640 media solution containing 0.16 to 100 μM of 4-(bicyclo[2.2.1]hept-5-en-2-yl)-1-(pyridin-2-ylmethylidene)thiosemicarbazide or other test compound (0.016 to 10 μM final). An aliquot of 22.5 μL of cells was added to a well of a 384-well microtiter plate containing 2.5 μL of a 10% DMSO in RPMI-1640 media solution without test compound as the control sample. The samples were mixed by agitation and then incubated at 37° C. for 48 h in a 5% CO2-95% humidity incubator. After incubation, the samples were removed from the incubator and 25 μL of a solution containing 14 μM of N-(Ac-DEVD)-N′-ethoxycarbonyl-R110 (SEQ ID NO:1) fluorogenic substrate (Maxim Pharmaceuticals, Inc.; WO99/18856), 20% sucrose (Sigma), 20 mM DTT (Sigma), 200 mM NaCl (Sigma), 40 mM Na PIPES buffer pH 7.2 (Sigma), and 500 μg/ml lysolecithin (Calbiochem) was added. The samples were mixed by agitation and incubated at room temperature. Using a fluorescent plate reader (Model SpectraMax Gemini, Molecular Devices), an initial reading (T=0) was made approximately 1-2 min after addition of the substrate solution, employing excitation at 485 nm and emission at 530 nm, to determine the background fluorescence of the control sample. After the 3 h incubation, the samples were read for fluorescence as above (T=3 h).
(§3) The Relative Fluorescence Unit values (RFU) were used to calculate the sample readings as follows:
(§4) RFU(T=3 h)−Control RFU(T=0)=Net RFU(T=3 h)
(§5) The activity of caspase cascade activation was determined by the ratio of the net RFU value for 4-(bicyclo[2.2.1]hept-5-en-2-yl)-1-(pyridin-2-ylmethylidene)thiosemicarbazide or other test compound to that of control samples. The EC50 (nM) was determined by a sigmoidal dose-response calculation (Prism 2.0, GraphPad Software Inc.).

[6] = test system: P388; experiment: Cell proliferation assay GI50, drug sensitive P388; assay type: cell-based; details: Mus musculus; P388 (drug sensitive) cells
Experimental: as §1

[7] = test system: NCI-H23; experiment: Cell proliferation assay GI50, NCI-H23; assay type: cell-based; details: Homo sapiens; NCI-H23 cells, 48 h
Experimental: as §1

[8] = test system: DLD-1; experiment: Cell proliferation assay GI50, DLD-1; assay type: cell-based; details: Homo sapiens; DLD-1 cells, 48 h
Experimental: as §1

[9] = test system: ZR-75-1; experiment: Caspase cascade activation (N-(Ac-DEVD)-N'-ethoxycarbonyl-R110 fluorogenic substrate) in ZR-75-1 cells; assay type: cell-based, human; details: 48 h incubation; for Caspase activity Ratio (net RFU of test compound to control): 0.016 to 10 μM final
Experimental: as §2, §3, §4, §5

[10] = test system: SK-Br-3; experiment: Cell proliferation assay GI50, SK-Br-3; assay type: cell-based; details: Homo sapiens; SK-Br-3 cells, 48 h
Experimental: as §1

[11] = test system: PC-3; experiment: Cell proliferation assay GI50, PC-3; assay type: cell-based; details: Homo sapiens; PC-3 cells, 48 h
Experimental: as §1

[12] = test system: T47-D; experiment: Cell proliferation assay (CellTiter 96 AQUEOUS One) GI50, T47-D; assay type: cell-based; details: Homo sapiens, T47D; T47-D cells, 48 h
Experimental: as §1

[13] = test system: HeLa; experiment: Cell proliferation assay GI50, HeLa; assay type: cell-based; details: Homo sapiens; HeLa cells, 48 h
Experimental: as §1

GI50 [1]	GI50 [2]	GI50 [3]	GI50 [4]	EC50 [5]	GI50 [6]	GI50 [7]	GI50 [8]	EC50 ([9]; Homo sapiens, read-out: Caspase potency EC50)	GI50 [10]	GI50 [11]	GI50 [13]	Caspase potency EC50 [9]	SMILES	Caspase activity Ratio (net RFU of test compound to control) [5]	Caspase activity Ratio (net RFU of test compound to control) [9]	GI50 [12]
50 nM	20 nM	7 nM	30 nM	360 nM	20 nM	30 nM	90 nM	862 nM	5 nM	30 nM	60 nM	–	S=C(NN=Cc1ccccn1)NC1CC2C=CC1C2 (stereo not shown) [Example 16, 4-(Bicyclo[2.2.1]hept-5-en-2-yl)-1-(pyridin-2-ylmethylidene)thiosemicarbazide]	3.5	3.0	5 nM
3000 nM	–	300 nM	–	866 nM	–	3000 nM	1700 nM	–	750 nM	–	–	INACTIVE	Cc1cccc(C=NNC(=S)NC2CC3C=CC2C3)n1 (stereo not shown) [Example 17, 4-(Bicyclo[2.2.1]hept-5-en-2-yl)-1-(6-methyl-pyridin-2-ylmethylidene)thiosemicarbazide]	3.3	2.5	1000 nM
